The source of these data is paper PMC5926202, “Creation of a nanoformulated cabotegravir prodrug with improved antiretroviral profiles” (Biomaterials, 2017).

The conditions of series [1]: long-acting parenteral; cited from earlier work.
The nature of series [2]: Solubility test in water and 1-octanol. Format: physicochemical. The settings on record: room temperature; for solubility at 24 h: water, thermodynamic from solid, 24 h mixing. As for the experimental part:
The solubilities of CAB and MCAB in water and 1-octanol were determined by adding excess drug to each solution at room temperature then mixing for 24 h. Samples were centrifuged at 20,000 × g for 10 min to pellet insoluble drug. The supernatants containing solubilized drug were vacuum-dried then re-dispersed in methanol for drug concentration measurement using a Waters ACQUITY ultra performance liquid chromatography (UPLC) H-Class System with TUV detector and Empower 3 software (Milford, MA, USA). […] Drug content was quantitated by comparison of peak area to those of known standards (0.05–50 µg/mL in methanol).

The test system of series [3] is HIV. The settings on record: cited from earlier work.
Series [4] concerns HIV-1ADA in human monocyte derived macrophages (MDM). Briefly: Antiretroviral activity of CAB and MCAB in HIV-1ADA infected MDM (HIV RT activity). Format: cell-based. The note with it: Human immunodeficiency virus 1, 168 h, HIV-1ADA MOI 0.1, MDM, 7 days after challenge.
Protocol: (E) Antiretroviral activities of CAB and MCAB were evaluated in HIV-1ADA infected human monocyte derived macrophages (MDM). Inhibition rate was presented as percentage of reduced HIV reverse transcriptase (RT) activity as compared to positive control RT activity. Nonlinear regression was performed using log (drug concentration) vs. Inhibition rate with variable slope, and drug concentration for 50% inhibition (IC50) was calculated. […] Data are expressed as mean ± SD for n= 6 samples per group.
Monocyte-derived macrophages (MDM) were utilized. […] Briefly, monocytes were obtained by leukapheresis of HIV-1/2 and hepatitis B seronegative donor blood cells, followed by purification via countercurrent centrifugal elutriation. Elutriated monocytes were cultured as adherent cells in DMEM supplemented with 10% heat-inactivated pooled human serum, 10 µg/mL ciprofloxacin, 50 µg/mL gentamicin, and 1000 U/mL recombinant macrophage colony stimulating factor. Cells were maintained at 37 °C in a 5% CO2 incubator. Seven days later, differentiated macrophages were treated with various concentrations (0.06–1000 nM) of native CAB or MCAB for 30 min, followed by HIV-1ADA challenge at a multiplicity of infection (MOI) of 0.1 infectious viral particles/cell. […]

Each structure is given as a SMILES string. Converted amounts (≈) assume the structure as drawn.

With `C[C@H]1CO[C@@H]2Cn3cc(C(=O)NCc4ccc(F)cc4F)c(=O)c(O)c3C(=O)N12` [CAB, cabotegravir], in series [1], the half-life entry is “up to 54 days”. The compound further returned a solubility at 24 h in series [2] of 31.9 ± 14.4 µg/mL (≈ 78.7 µM). Besides, in series [3] (4 times protein-binding-adjusted 90% inhibitory concentration ref 19-22), the “4 × PA-IC90” value is recorded as 660 ng/mL. For the same compound, the PA-IC90 in series [3] (protein-binding-adjusted ref 24) was 166 ng/mL. For the same compound, 2.5 nM corresponded to half-maximal inhibition in series [4] (IC50).
For `CCCCCCCCCCCCCC(=O)Oc1c2n(cc(C(=O)NCc3ccc(F)cc3F)c1=O)CC1OCC(C)N1C2=O` (centres unmarked) [MCAB], in series [2], the “increase in 1-octanol solubility compared to CAB” value is recorded as 30 fold and the concentration in solution (solubility at 24 h) came to 5.6 ± 1.8 µg/mL (≈ 9.1 µM). In addition, the IC50 in series [4] is 3.4 nM.
